Columns and labels:
[1] = Screening Study (Example 3): sulfoxide formed in API solution with each agent, HPLC; format: physicochemical; settings: 24 hours exposed to air at room temperature, not protected from light
Description: A buffer solution was prepared by adding 0.72 g of Na2HPO4, 0.24 g KH2PO4 and 500 mL of deionized water into a container and mixing.
(§1) A solution of each agent in the table below was prepared by adding 500 mg or each agent into a 25 mL volumetric flask and filling the flask to volume by the addition of the prepared buffer solution.
A 6% solution of API was prepared by adding 3.0 g the disodium salt of 4-(((R)-1-carboxy-2-(((2E,6E)-3,7,11-trimethyldodeca-2,6,10-trien-1-yl)thio)ethyl)amino)-4-oxobutanoic acid to a 50 mL volumetric flask and filling the flask to volume by the addition of methanol, followed by mixing.
(§2) A screen was performed for each agent as follows: (1) 2.5 mL of the stock solution of API and 2.5 mL of each agent was added into a 100 mL volumetric flask and the contents were mixed (repeated three times for each agent); and (2) allowing each resulting mixture to sit for 24 hours exposed to air at room temperature and not protected from light. A blank solution was prepared (3×) by adding buffer solution into the 100 mL volumetric flask in place of the agent. After 24 hours, each volumetric flask was filled to volume by the addition of methanol, and an aliquot of each mixture was removed and analyzed by HPLC.
The area of the sulfoxide of 4-(((R)-1-carboxy-2-(((2E,6E)-3,7,11-trimethyldodeca-2,6,10-trien-1-yl)thio)ethyl)amino)-4-oxobutanoic acid produced in each solution was calculated as follows: % area sulfoxide=Rsulfoxide/(Rparent+Rsulfoxide), wherein Rsuffoxide=the area under the response of the sulfoxide in the HPLC trace, and Rparent=the area under the response of 4-(((R)-1-carboxy-2-(((2E,6E)-3,7,11-trimethyldodeca-2,6,10-trien-1-yl)thio)ethyl)amino)-4-oxobutanoic acid in the HPLC trace.

[2] = Screening Study (Example 5): sulfoxide formed in API solution with each agent, HPLC; format: physicochemical
Description: A buffer solution was prepared by adding 0.72 g of Na2HPO4, 0.24 g KH2PO4 and 500 mL of deionized water into a container and mixing. The pH of the mixture was adjusted to 7.4 to 7.5 using NaOH and H3PO4.
as §1
A 6% solution of API was prepared by adding 3.0 g the disodium salt of 4-(((R)-1-carboxy-2-(((2E,6E)-3,7,11-trimethyldodeca-2,6,10-trien-1-yl)thio)ethyl)amino)-4-oxobutanoic acid to a 50 mL volumetric flask filling the flask to volume by the addition of argon-sparged methanol, followed by mixing.
as §2, with “scintillation vial, the vial was capped” for “a 100 mL volumetric flask”, “agent and was stored under the same conditions as the other samples, 24 hours exposed to air at room temperature and not protected from light.” for “agent.”, “hours, the contents of each vial were transferred to a 100 mL volumetric flask and” for “hours,”
The area of the sulfoxide of 4-(((R)-1-carboxy-2-(((2E,6E)-3,7,11-trimethyldodeca-2,6,10-trien-1-yl)thio)ethyl)amino)-4-oxobutanoic acid produced in each solution was calculated as follows: % area sulfoxide=Rsulfoxide/(Rparent+Rsulfoxide), wherein Rsuffoxide=the area under the response of the sulfoxide in the HPLC trace, and Rparent=the area under the response of 4-(((R)-1-carboxy-2-(((2E,6E)-3,7,11-trimethyldodeca-2,6,10-trien-1-yl)thio)ethyl)amino)-4-oxobutanoic acid in the HPLC trace. The control sample in Table 8 contained no agent, was stored at 5° C. and protected from light.

In the case of O=S([O-])([O-])=S.[Na+].[Na+] [Sodium thiosulfate], the “% area sulfoxide relative to % area Control” value [1] is reported as 0.055, the “(% area sulfoxide for each agent/% area sulfoxide in Blank)” value [1] is reported as 0.92 and the “Average % area sulfoxide for 3 runs per agent” value ([1]; API disodium salt solution plus agent) is reported as 1.032%. The “(% area sulfoxide for each agent/% area sulfoxide in Blank)” value ([2]; 24 hours exposed to air at room temperature, not protected from light) was 0.96, the “% area sulfoxide relative to % area Control” value ([2]; Control: no agent, stored at 5° C. and protected from light) was 0.158 and the “Average % area sulfoxide for 3 runs per agent” value ([2]; pH 7.4 to 7.5 buffer, API disodium salt solution plus agent, 24 hours exposed to air at room temperature, not protected from light) was 1.117%.
